Measured values: patent US11427560B2, “Composition and methods for inhibiting mammalian sterile 20-like kinase 1” (The Scripps Research Institute, priority 2015, dated 2022)

What was measured:
[1] = tested on: human islets; test: High glucose/palmitate induced apoptotic activity in human islets; details: high glucose and palmitate (HG/Pal), 25 μM neratinib, FIG. 8
Excerpt: Freshly isolated human islets from a single donor were exposed to high glucose and palmitate (HG/Pal) to induce apoptosis.

[2] = tested on: beta cells; test: Beta cell apoptosis with increasing neratinib concentrations (FIG. 3); assay type: cell-based; details: increasing concentrations of neratinib

Structure (SMILES): CCOc1cc2ncc(C#N)c(Nc3ccc(OCc4ccccn4)c(Cl)c3)c2cc1NC(=O)/C=C/CN(C)C [neratinib]
- MST1 phosphorylation (pMST1) [1]: inhibited
- induction of cleaved caspase 3 (Cl Casp3) [1]: inhibited
- Beta cell apoptosis [2]: decrease with exposure to increasing concentrations
